Reference: PubChem BioAssay AID1013 (Columbia University Molecular Screening Center, 2008)
Calls of active or inactive are those of the source. The rule behind the calls is not given here.

experiment: blockers of VCAM1 upregulation by TNFa – imaging, TNFa stimulus, retest and dose response, confirmation (AID 1013); settings: TNFa-stimulated cells, VCAM1 expression imaging; at 2 µM; stronger effect = higher value;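 for cell count: compound on cells 1 h before TNFa then 24 h more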

| Compound | inhibition |
| --- | --- |
| CCOC(=O)C1C(=O)NC(N2CCCCC2)=NC1c1ccco1 (configuration not stated) | -0.9% (inactive) |
| Cc1ccc(NC(=O)c2oc3c(c2C)C(=O)CC(C)(C)C3)cc1 | -0.4% (inactive) |
| Cc1cc(C)n(C(=O)c2ccc(NC(=O)C3COc4ccccc4O3)cc2)n1 (configuration not stated) | 3.2% (inactive) |
| O=C(O)c1c[nH]c2ccc(S(=O)(=O)N3CCOCC3)cc12 | 1.4% (inactive) |
| O=C(CS(=O)c1ccc(C(F)(F)F)cc1[N+](=O)[O-])Oc1ccccc1 (configuration not stated) | 56.9% (inactive) |
| Cc1ccc(C)c(NC(=S)NC(NC(=O)Cc2cccc3ccccc23)C(Cl)(Cl)Cl)c1 (configuration not stated) | 75.3% (inactive) |
| COc1cc(NC(=O)c2ccc(COCC(F)(F)F)o2)cc(OC)c1OC | 20.7% (inactive) |
| O=C1CC(N2CCN(Cc3ccc4c(c3)OCO4)CC2)C(=O)N1c1ccccc1 (configuration not stated) | -11.2% (inactive) |
| Cn1c(SCC(=O)NC2CCCCC2)nnc1-c1cccc(N)c1 | 4.3% (inactive) |
| C=CCNC(=O)c1nn2cccnc2c1Cl | 3.3% (inactive) |
| CCOc1ccccc1N1CCN(C(=O)c2cccc(-c3ccc(O)cc3)c2)CC1 | -6.4% (inactive) |
| Cn1c(NC(=O)C2c3ccccc3Oc3ccccc32)cc(=O)n(C)c1=O | -2.7% (inactive) |
| O=C(NCCO)C(c1ccccc1)c1ccccc1 | -14.4% (inactive) |
| O=C(Cn1cccc1C(=O)c1ccccc1)NCCN1CCOCC1 | -13.5% (inactive) |
| CCNc1nc(NCC)n2c(SCc3ccc(F)cc3)nnc2n1 | -6.3% (inactive) |
| C=CC(=O)Nc1ccc(Br)cc1 | -8.4% (inactive) |
| Cn1cc([N+](=O)[O-])c(C(=O)Nc2ccc3c(c2)OCCO3)n1 | 10.7% (inactive) |
| COc1ccc2c(c1)CCc1c(C(=O)N3CC4(C)CC3CC(C)(C)C4)noc1-2 (configuration not stated) | -14.4% (inactive) |
| COc1cccc(C(=O)Nc2cccc(-c3nc4ncccc4o3)c2C)c1 | 2.2% (inactive) |
| O=C(c1ccc2snnc2c1)N1CCSCC1 | 8.5% (inactive) |
| C=CCCCOc1ccc(C(=O)O)cc1 | 8.3% (inactive) |
| CC/C(=N\NC(=O)CNC(=O)/C=C/c1ccco1)c1ccccc1 | -3.4% (inactive) |
| COc1cc2[nH]cc(C(=O)NCCc3ccccc3)c(=O)c2cc1OC | -5.6% (inactive) |
| CCOC(=O)c1ccc(-n2c(=S)sc3c(=O)[nH]c(C)nc32)cc1 | -10.7% (inactive) |
| CSc1nc2sc(-c3ccccc3)cc2c(=O)n1N | 8.1% (inactive) |

| Compound | inhibition |
| --- | --- |
| COc1ccc(S(=O)(=O)N2CCCC2C(=O)Nc2ccc(C)cc2)cc1 (configuration not stated) | -4% (inactive) |
| Cc1ccc(-c2nc(NC(=O)c3nn(C)cc3[N+](=O)[O-])sc2C)cc1 | 91.2% (inactive) |
| Cc1oc2cc3c(C(=O)N4CCCCC4)c(C)oc3cc2c1C(=O)N1CCCCC1 | 4.7% (inactive) |
| CCOc1ccccc1/C=N/Nc1ccccc1[N+](=O)[O-] | 5.1% (inactive) |
| CCN(CC)C(=O)CN(c1ccc(Cl)cc1)S(=O)(=O)c1ccccc1 | -3.1% (inactive) |
| COc1ccc(CC(=O)OCc2cc3ccc(C)cc3[nH]c2=O)cc1 | 6.4% (inactive) |
| CCNCC(O)COCC(O)CNCC (configuration not stated) | 1.3% (inactive) |
| COc1cc(NC(=O)CN2C(=O)NC(C)(CC(C)C)C2=O)cc(OC)c1 (configuration not stated) | 11.6% (inactive) |
| CCOC(=O)N1CCN(C(=O)c2ccc3c(c2)NC(=O)C(N2CCOCC2)S3)CC1 (configuration not stated) | 2.1% (inactive) |
| CCOC(=O)Cc1cc(-c2ccc(O)cc2)nc2ccc3ccccc3c12 | 35.9% (inactive) |
| CCn1c(=O)cc(OCC(=O)NCc2ccco2)c2ccccc21 | -6.7% (inactive) |
| CN1CCc2nc3sc(C#N)c(N)c3c(-c3cccs3)c2C1 | -13.9% (inactive) |
| Nc1nnc(SCC(=O)NCc2ccc3c(c2)OCO3)s1 | 0.2% (inactive) |
| CCCOC(=O)c1ccc(NC(=O)Oc2ccccc2)cc1 | -2.5% (inactive) |
| CCCc1cc(=O)[nH]c(SCC(=O)Nc2nonc2N)n1 | 9.8% (inactive) |
| CN1CCCCc2c1[nH]c1ccccc1c2=O | 5.5% (inactive) |
| CCOc1cc(/C=C2/C(=O)N(c3ccccc3)N=C2C)ccc1OC(=O)c1ccco1 | 3.9% (inactive) |
| CCOC(=O)c1cnc(-n2nc(C)cc2C)nc1N1CCOCC1 | 0.6% (inactive) |
| CCCNS(=O)(=O)c1ccc2c(c1)CCCN2C(C)=O | -18.5% (inactive) |
| CCN1CCC2(CC1)C(C#N)=C(N)Oc1c2sc2nc(C)cc(C)c12 | -4.5% (inactive) |
| Cc1cccc(N(CC(=O)N/N=C/c2ccc(OCC(=O)NCc3ccco3)cc2)S(C)(=O)=O)c1C | -4.7% (inactive) |
| CCN(CC)S(=O)(=O)c1ccc(NC(=O)C(C)N(c2ccc(OC)cc2)S(C)(=O)=O)cc1 (configuration not stated) | -3.6% (inactive) |
| O=C(CN1CCC(c2nc3ccccc3s2)CC1)NCc1cccs1 | -3.1% (inactive) |
| O=C(CCCCCN1C(=O)c2ccccc2C1=O)Nc1nccs1 | -4.8% (inactive) |
| CCOc1cc(NC(=O)c2ccco2)c(OCC)cc1NC(=O)CCC(=O)NCc1cccnc1 | 3.7% (inactive) |

| Compound | inhibition |
| --- | --- |
| O=S(=O)(Nc1ccc(-n2cccc2)cc1)c1ccccc1 | 11.9% (inactive) |
| COc1ccc(CSc2nc3ccccc3[nH]2)cc1 | -2.5% (inactive) |
| COc1cccc(CSc2nc3ccccc3cc2C=O)c1 | 43.3% (inactive) |
| COc1cccc(C(=O)COc2cccc(NC(=O)c3cccc([N+](=O)[O-])c3)c2)c1 | 1.6% (inactive) |
| O=C(O)C1CC=CCC1C(=O)N1CCCC1 (configuration not stated) | -1.4% (inactive) |
| CN=c1sc2ccccc2n1CC(O)COc1ccccc1 (configuration not stated) | -13.2% (inactive) |
| CCCOC(=O)CSC1=C(C#N)C(c2ccccc2OC)C(C#N)C(=O)N1 (configuration not stated) | -11.7% (inactive) |
| O=C1N2CCSC2=NC1(Nc1ccccn1)C(F)(F)F (configuration not stated) | 5.4% (inactive) |
| Cc1cc(C(=O)NN=C2C3CC4CC(C3)CC2C4)c2ccccc2n1 | -1.3% (inactive) |
| COc1ccc(/C=N/NC(=O)c2ccccc2Cl)cc1CSc1nc2ccccc2s1 | 13.7% (inactive) |
| C=CCn1c(SCC(=O)Nc2ccc(C(=O)OCC)cc2)nnc1-c1sc(N)nc1C | 9.5% (inactive) |
| Cc1cccc(NC(=O)CC2SC(=O)N(c3ccccc3)C2=O)c1 (configuration not stated) | 3.9% (inactive) |
| O=C(c1ccc2c(c1)ncn2C1CCCCC1)N1CCC2(CC1)OCCO2 | 4.9% (inactive) |
| CCOC(=O)c1oc2ccccc2c1NC(=O)Cc1cccs1 | -16.8% (inactive) |
| N#Cc1c(NCc2ccccc2)ccnc1NCc1cccnc1 | -17.4% (inactive) |
| OC1(c2cccc(C(F)(F)F)c2)CCN(c2ncnc3c2[nH]c2ccc(F)cc23)CC1 | 1% (inactive) |
| CC(C)C(=O)N1CCN(c2nc(-c3ccccc3)c3c(c2C#N)CC(C)(C)OC3)CC1 | 5.1% (inactive) |
| COc1cc(CC(=O)Nc2ncc(C)s2)cc(OC)c1OC | -6.6% (inactive) |
| Cc1oc(-c2ccc(Cl)cc2)cc1-c1nn2c(-c3ccoc3C)nnc2s1 | -0.1% (inactive) |
| O=C(Oc1ccc2ccc(=O)oc2c1)N1CCOCC1 | 1.4% (inactive) |
| Clc1ccc(C2=Nn3c(nnc3-c3cccnc3)SC2)s1 | 13% (inactive) |
| O=C(CC(c1ccccc1)c1ccccc1)NCC1CCCO1 (configuration not stated) | -7.2% (inactive) |
| COc1ccc(C)cc1S(=O)(=O)Nc1cccc(SC)c1 | 3.5% (inactive) |
| C/C(Cl)=C\Cn1c(NCCCn2ccnc2)nc2c1c(=O)n(C)c(=O)n2C | 4.7% (inactive) |
| COc1ccc(CN2CCCCC2C(=O)Nc2ccc(OC)c(OCC(C)C)c2)cc1OC (configuration not stated) | -5.8% (inactive) |

| Compound | inhibition |
| --- | --- |
| CN(C)c1nc(N(C)C)nc(N(C#N)CCOc2ccccc2)n1 | -3.1% (inactive) |
| CCOC(=O)/C(=C\c1cccnc1)C(=O)c1cc(C(C)=O)c(Nc2ccccc2)s1 | 19.8% (inactive) |
| O=C(CN1CCN(c2nc(-c3ccc(F)cc3)cs2)CC1)Nc1ccc2c(c1)OCO2 | 16.2% (inactive) |
| CC(C)NC1CS(=O)(=O)CC1O (configuration not stated) | -13.7% (inactive) |
| O=C1CC(N2CCN(Cc3ccc4c(c3)OCO4)CC2)C(=O)N1Cc1ccc(N2CCCC2=O)cc1 (configuration not stated) | -5.2% (inactive) |
| COC(=O)CSc1nc2nc(C)c(Br)cc2[nH]1 | -12.6% (inactive) |
| CCOC(=O)C1=C(CSc2nc3c(cc2C#N)CN(C)CC3)OC(N)=C(C#N)C1c1ccccc1 (configuration not stated) | -5.4% (inactive) |
| CCOC(=O)c1cnn(-c2nc(CC)nc3sc4c(c23)CCC4)c1N | -10.3% (inactive) |
| CCOC(=O)c1ccc(N2C(=O)CC(N3CCC(O)(c4ccc(Br)cc4)CC3)C2=O)cc1 (configuration not stated) | -13.9% (inactive) |
| CCOC(=O)N1CCC(NC(=O)c2ccc(CS(=O)(=O)c3ccc(OC)cc3)o2)CC1 | -7.8% (inactive) |
| CNC(=O)CN(c1ccc(OC)cc1)S(=O)(=O)c1ccc(F)cc1 | 6.8% (inactive) |
| Cc1cc(NC(=O)C2C3C=CC(C3)C2C(=O)O)no1 (configuration not stated) | -1.8% (inactive) |
| OCCNCC(O)Cn1ccc2ccccc21 (configuration not stated) | -5.6% (inactive) |
| COC(=O)c1c(NC(=O)c2ccc(S(=O)(=O)N3CCOCC3)cc2)sc2c1CCN(C)C2 | -5.4% (inactive) |
| CCC(=O)N1c2ccc(S(=O)(=O)CCC(=O)N3CCn4c3nc3ccccc34)cc2CC1C (configuration not stated) | -14.1% (inactive) |
| O=C1Nc2ccc(S(=O)(=O)N3CCOCC3)c3cccc1c23 | -7.2% (inactive) |
| O=S(=O)(c1cccs1)N1CCN(CC(O)COc2cccc(Br)c2)CC1 (configuration not stated) | 4.8% (inactive) |
| Cc1cc(C)cc(OCc2nnc(SCC(=O)N3CCN(c4ccccc4)CC3)o2)c1 | -2% (inactive) |
| COc1ccccc1C(=O)Nc1ccc2c(c1)nc(CN1CCN(C(C)=O)CC1)n2C | 0.2% (inactive) |
| CC1Cc2cc(-c3csc(NC(=O)Cc4cccs4)n3)ccc2N1S(C)(=O)=O (configuration not stated) | 0.8% (inactive) |
| O=C1C2CCCN2C(c2cccnc2)N1c1ccc(Cl)c(Cl)c1 (configuration not stated) | -2.6% (inactive) |
| CSc1nc2nccc(-c3ccc(Oc4ccccc4)cc3)n2n1 | -5.9% (inactive) |

same assay, conditions: TNFa-stimulated cells, VCAM1 expression imaging; cell count; at 10 µM; stronger effect = lower value

| Compound | cell count [%] |
| --- | --- |
| O=C(CS(=O)c1ccc(C(F)(F)F)cc1[N+](=O)[O-])Oc1ccccc1 (configuration not stated) | 109 |
| Cc1ccc(C)c(NC(=S)NC(NC(=O)Cc2cccc3ccccc23)C(Cl)(Cl)Cl)c1 (configuration not stated) | 99.3 |
| Cc1ccc(-c2nc(NC(=O)c3nn(C)cc3[N+](=O)[O-])sc2C)cc1 | 113 |
| CCOC(=O)Cc1cc(-c2ccc(O)cc2)nc2ccc3ccccc3c12 | 100 |
| COc1cccc(CSc2nc3ccccc3cc2C=O)c1 | 91.7 |
